Common to all, as to format: biochemical
Conditions in all cases: for inhibition at 0.01 µM: compound at 10 nM; for inhibition at 0.01 µM / inhibition at 0.1 µM: read-out: remaining kinase activity (in %) / percentage of inhibition; for inhibition at 0.1 µM: compound at 100 nM; for IC50: ATP at Km, read-out: CI50 (the source's name)

For one assay, the target named is T1, AurA (Homo sapiens, UniProt O14965).
T1 construct: purchased Carna Biosciences
T1 sequence (O14965 1-403): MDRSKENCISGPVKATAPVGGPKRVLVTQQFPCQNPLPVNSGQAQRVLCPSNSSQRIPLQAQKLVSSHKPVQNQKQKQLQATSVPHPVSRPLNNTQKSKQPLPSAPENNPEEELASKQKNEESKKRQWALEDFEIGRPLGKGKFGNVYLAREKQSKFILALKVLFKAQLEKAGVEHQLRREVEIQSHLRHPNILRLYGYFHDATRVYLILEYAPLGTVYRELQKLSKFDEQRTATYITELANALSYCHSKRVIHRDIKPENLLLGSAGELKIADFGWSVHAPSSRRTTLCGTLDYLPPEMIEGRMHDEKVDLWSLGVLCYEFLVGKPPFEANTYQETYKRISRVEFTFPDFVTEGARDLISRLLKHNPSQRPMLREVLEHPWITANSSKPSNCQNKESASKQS
Kind of assay: LabChip (Caliper) kinase assay, AurA. The procedure: (§1) The analysis of kinase activity described here was performed using LabChip (Caliper Life Sciences), specifically the Caliper LC3000 and the EZ Reader II instruments.
(§2) The kinase assay used measures the conversion of a fluorescent peptide (substrate) to a phosphorylated product. The reaction mixture, in a microplate well, is introduced by a capillary in a chip where the non-phosphorylated substrate and the phosphorylated product are separated by […]. The intensity of the fluorescent signal over time is related to the reaction progress. The phosphorylated product migrates quicker than the non-phosphorylated substrate and the signals of the two forms of the peptide appear as differentiated peaks. The Caliper determines the peak height and calculates the ratio of product to the peak sum (P/(P+S)). This value is used to compare wells with compounds and wells with controls and thus determine the % of inhibition for the given product.
(§3) The followings kinases were used for the enzymatic inhibition studies, between brackets the value of the Michaelis-Menten constant, Km, of the ATP (Adenosine triphosphate) for each kinase, in μM: obtained from Carna Biosciences: MAPKAPK2 (4.6), AurA (3.6), AurB (5), PKCζ (3.8), RSK1 (23.3), PRAK (5), Erk1 (33.4), PKD2 (32.1), CK1d (16.3), CHK1 (33), ABL (61.7), FYN (36), LYNa (17), CHK2 (57.8), MET (79.5), LCK (28.5), SRC (38), GSK3β (7.3), Erk2 (62.1), PKACα (1.7), AKT2 (186.1), INSR (871.8), p38a (396.5), AKT1(48), MSK1 (21.2), PKCβ2 (84.8), ROCK2 (3.3), PIM2 (4.9), AMPK (38.6), KDR (164.8), IRAK4 (196.5), SGK1 (121.8), SYK (33.5); obtained from Invitrogen: CDK2 (57.6), BTK (123), HGK (80); obtained from Upstate: MST2 (36.6), PKGα (16), PAK2 (1.9), IGF1R (320), FGFR1 (171), MARK1 (33), CAMK2δ (22.4), c-TAK1 (66), DYRK1a (18.1), CaMK4 (3.9), FLT3 (350), c-Raf (6.2), P70S6K (95).
(§4) The compounds were dissolved in 100% DMSO and were diluted at 25 times the final concentration desired for the assay. In the case of the determination of Cl50, serial dilutions were made to reach eight concentrations and give rise to the inhibition curve. 1 μL of each concentration is transferred, in duplicate to a 384-well microplate. 12 μL of enzymatic buffer is added to each well containing purified kinase (several suppliers as indicated above), 100 mM HEPES, pH 7.5, 1 mM DTT (Calbiochem), 0.002% Brij-35 (Sigma) and also in presence of 10 mM MgCl2 as cofactor, except for INSR and IRAK4 wherein 10 mM MnCl2 is used instead of MgCl2. For the kinases CAMK26 and CAMK4, 1 mM CaCl2 and 6.7 μg/mL of calmodulin are also added. For KDR kinase, 0.05% of the CHAPSO detergent is added. For the c-Raf kinase, 10 mM MnCl2 is added. For PKCβ2 0.02 μg/mL of PS/PMA is added. For PKGα se 10 μM of cGMP (cyclic guanosine monophosphate) is added. The compound and the enzyme are left for 15 minutes preincubation and, then, the following are added to each well: 12 μL of peptide buffer/ATP containing 100 mM HEPES, pH 7.5, 1.5 μM peptide marker with fluorescein (specific for the corresponding kinase), ATP (at concentration KM), and 0.002% Brij-35 to start the reaction. Generally, the reactions are incubated for 1-1.5 h at ambient temperature to obtain an adequate conversion (15-40%) of the peptide to the phosphorylated product. The reactions were ended by the addition of 45 μL of buffer containing 0 mM EDTA. The microplates were read by the LabChip 3000 using a 12-channel LabChip. The P/(P+S) values were obtained as described above and the CI50 curves were generated using XIfit.
(§5) Table 9a has the 0150 data obtained in pairs of compound-kinase selected from the compounds of formula (VII), (VIII), (IX), (XVI), (XVII) and (XVIII) after taking inhibition measurements at 100 nM and 10 nM. Those couples that provide >70% of inhibition at 10 nM were consider for measuring its IC50. […]

For another assay, the target named is T2, Chk1 (Homo sapiens, UniProt O14757).
T2 construct: purchased Carna Biosciences
T2 sequence (O14757 1-476): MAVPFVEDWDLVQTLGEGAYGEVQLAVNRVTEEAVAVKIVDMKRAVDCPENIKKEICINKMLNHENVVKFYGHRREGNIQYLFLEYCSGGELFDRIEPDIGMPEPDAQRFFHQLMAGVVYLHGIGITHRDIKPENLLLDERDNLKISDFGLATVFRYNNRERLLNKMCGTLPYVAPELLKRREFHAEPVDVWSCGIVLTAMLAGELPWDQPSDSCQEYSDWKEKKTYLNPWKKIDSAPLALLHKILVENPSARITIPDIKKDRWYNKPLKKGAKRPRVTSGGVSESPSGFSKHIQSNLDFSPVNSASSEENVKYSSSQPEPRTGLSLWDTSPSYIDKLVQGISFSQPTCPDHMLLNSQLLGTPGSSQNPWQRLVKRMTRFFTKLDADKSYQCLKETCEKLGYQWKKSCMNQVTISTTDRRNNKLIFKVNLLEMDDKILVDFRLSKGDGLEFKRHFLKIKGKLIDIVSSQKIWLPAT
Kind of assay: LabChip (Caliper) kinase assay, Chk1. The procedure:
as §1, §2, §3, §4, §5

The next assay addresses T3, SYK (Homo sapiens, UniProt P43405).
T3 construct: purchased Carna Biosciences
Kind of assay: LabChip (Caliper) kinase assay, SYK. How it is done: as §1, §2, §3, §4, §5

For 14 compounds, inhibition and IC50 results are on record in patent US8598132B2, “Glycosylated indolocarbazoles, method for obtaining same and uses thereof” (Universidad de Oviedo, priority 2008, dated 2013).

With `C[C@@H]1O[C@@H](n2c3ccccc3c3c4c(c5c6ccccc6[nH]c5c32)C(=O)NC4=O)[C@H](O)[C@H](O)[C@H]1O` [formula (III), N^13-1′-β-L-rhamnosylarcyriaflavin], the inhibition at 0.01 µM at AurA is 0%; at Chk1 it was -3%; at SYK it was 2%. Besides, the inhibition at 0.1 µM is 5% on AurA, 15% on Chk1 and -8% on SYK.

As for `C[C@@H]1O[C@@H](n2c3ccccc3c3c4c(c5c6ccccc6[nH]c5c32)C(=O)NC4=O)C[C@H](O)[C@H]1O` [formula (IV), N^13-1′-β-L-olivosylarcyriaflavin], the inhibition at 0.01 µM was found to be 4% at AurA, 5% at Chk1 and 11% on SYK. The inhibition at 0.1 µM at AurA worked out at 19%; at Chk1, 35%; at SYK, 35%.

For `C[C@]12O[C@H](C[C@@H](O)[C@H]1O)n1c3ccccc3c3c4c(c5c6ccccc6n2c5c31)C(=O)NC4=O` [formula (IX), N^12-5′(S)-N^13-1′-(R)-L-digitoxosylarcyriaflavin], the IC50 on AurA came out at 6.7 nM; on SYK, 2.3 nM.

With `C[C@@H]1O[C@@H](n2c3ccccc3c3c4c(c5c6ccccc6[nH]c5c32)C(=O)NC4=O)C[C@@H](O)[C@H]1O` [formula (V), N^13-1′-β-L-digitoxosylarcyriaflavin], the inhibition at 0.01 µM on AurA worked out at 4%; on Chk1, 45%; at SYK, 13%. For the same compound, the inhibition at 0.1 µM at AurA is 22%; at Chk1, 81%; at SYK, 24%.

Take `C[C@H]1O[C@@H](n2c3ccccc3c3c4c(c5c6ccccc6[nH]c5c32)C(=O)NC4=O)C[C@@H](O)[C@@H]1O` [formula (VI), N^13-1′-β-D-olivosylarcyriaflavin]: the inhibition at 0.01 µM turned out to be 3% on AurA, 2% at Chk1 and 5% at SYK. Further, the inhibition at 0.1 µM at AurA was found to be 13%; at Chk1, 50%; on SYK, 31%.

In the case of `C[C@]12O[C@H]([C@H](O)[C@H](O)[C@H]1O)n1c3ccccc3c3c4c(c5c6ccccc6n2c5c31)C(=O)NC4=O` [formula (VII), N^12-5′(S)-N^13-1′-(R)-L-rhamnosylarcyriaflavin], the IC50 was more than 10 nM on AurA, 1 nM on Chk1 and 1 nM on SYK.

In the case of `C[C@]12O[C@H](C[C@H](O)[C@H]1O)n1c3ccccc3c3c4c(c5c6ccccc6n2c5c31)C(=O)NC4=O` [formula (VIII), N^12-5′(S)-N^13-1′-(R)-L-olivosylarcyriaflavin], the IC50 at AurA is more than 10 nM; at Chk1 it was 4.9 nM; at SYK, 1.1 nM.

With `C[C@@H]1O[C@@H](n2c3ccccc3c3c4c(c5c6ccccc6[nH]c5c32)CNC4=O)[C@H](O)[C@H](O)[C@H]1O` [formula (XII), N^13-1′-β-L-rhamnosyl-k252c], the inhibition at 0.01 µM came to 2% on AurA, 2% at Chk1 and 8% on SYK. The results for the inhibition at 0.1 µM on AurA, on Chk1 and at SYK were 3%, 8% and 10%, respectively.

For `C[C@@H]1O[C@@H](n2c3ccccc3c3c4c(c5c6ccccc6[nH]c5c32)CNC4=O)C[C@H](O)[C@H]1O` [formula (XIII), N^13-1′-β-L-olivosyl-k252c], the figures for the inhibition at 0.01 µM on AurA, at Chk1 and at SYK were 2%, 1% and 12%, respectively. Besides, the results for the inhibition at 0.1 µM on AurA, at Chk1 and at SYK were 24%, 27% and 30%, respectively.

In the case of `C[C@@H]1O[C@@H](n2c3ccccc3c3c4c(c5c6ccccc6[nH]c5c32)CNC4=O)C[C@@H](O)[C@H]1O` [formula (XIV), N^13-1′-β-L-digitoxosyl-k252c], the inhibition at 0.01 µM at AurA is 1%; at Chk1 it was 6%; at SYK, -1%. In addition, the inhibition at 0.1 µM on AurA turned out to be 5%; at Chk1 it was 46%; at SYK, 11%.

In the case of `C[C@H]1O[C@@H](n2c3ccccc3c3c4c(c5c6ccccc6[nH]c5c32)CNC4=O)C[C@@H](O)[C@@H]1O` [formula (XV), N^13-1′-β-D-olivosyl-k252c], the inhibition at 0.01 µM on AurA turned out to be 3%; on Chk1, 4%; at SYK it was 7%. Besides, the inhibition at 0.1 µM on AurA amounted to 20%; on Chk1, 20%; at SYK, 29%.

Turning to `C[C@]12O[C@H]([C@H](O)[C@H](O)[C@H]1O)n1c3ccccc3c3c4c(c5c6ccccc6n2c5c31)CNC4=O` [formula (XVI), N^12-5′(S)-N^13-1′-(R)-L-rhamnosyl-k252c], the IC50 on Chk1 amounted to 2.4 nM.

Consider `C[C@]12O[C@H](C[C@H](O)[C@H]1O)n1c3ccccc3c3c4c(c5c6ccccc6n2c5c31)CNC4=O` [formula (XVII), N^12-5′(S)-N^13-1′-(R)-L-olivosyl-k252c], for which the IC50 at AurA turned out to be 5 nM.

With `C[C@]12O[C@H](C[C@@H](O)[C@H]1O)n1c3ccccc3c3c4c(c5c6ccccc6n2c5c31)CNC4=O` [formula (XVIII), N^12-5′(S)-N^13-1′-(R)-L-digitoxosyl-k252c], the IC50 at AurA, on Chk1 and on SYK was more than 10 nM each time.
